Values quoted from earlier work as cited in patent US7198895B2, “In vitro cell-based methods for biological validation and pharmacological screening of chemical entities and biologicals” (priority 2000, dated 2007).

Legend:
[1] = treated subjects
HepG2 cells = HepG2 cells exposed to cis-platinum; ref (17)

| Structure (SMILES) | life-threatening adverse event [1] | number of genes consistently differentially expressed (HepG2 cells) [genes] | number of genes differentially expressed (HepG2 cells) [genes] |
| --- | --- | --- | --- |
| CCNC(C)Cc1cccc(C(F)(F)F)c1 (stereo not drawn) [Fenfluramine] | valvular fibrosis |  |  |
| N.N.[Cl][Pt][Cl] [cis-platinum] |  | 14 | ≥ 200 |
